Reference: PMC10714334, “Developing multispecies quorum-sensing modulators based on the Streptococcus mitis competence-stimulating peptide” (The Journal of Biological Chemistry, 2023)
Non-standard residues stand in square brackets, D forms with d. Residues, ends and D or L forms follow the SMILES beside them. No end group written: not given here.

What was measured:
[1] = tested on: defibrinated rabbit red blood cells; assay: hemolysis assay; format: cell-based; details: mean ± S.D., SD
Method: A single colony of S. mitis ATCC 49456 was grown for 16 h at 37 °C with 5% CO2 in 5 mL THY media (pH 7.3). Overnight cultures were then diluted 1:10 in fresh THY media. Samples were prepared in clear bottom 96 -well microtiter plates. Experimental samples were prepared by adding 196 µL of the 1:10 diluted culture and 2 µL of a 1 mM S. mitis-CSP-2 and the lead S. mitis-CSP-2 analogs (lead activator, S. mitis-CSP-2-n11, and lead inhibitor, S. mitis-CSP-2-E1Af10r16), or 196 µL of fresh THY media and 2 µL of a 1 mM S. mitis-CSP-2/ S. mitis-CSP-2 analog stock.
Two µL of DMSO was added to each well. A positive control was prepared by adding 2 µL of a 1% Triton X solution and 2 µL of DMSO in 196 µL THY media, and negative controls were prepared by adding 4 µL DMSO in either 196 µL 1:10 diluted culture or 196 µL THY media. The 96-well microtiter plate was then incubated for 2 h at 37 °C with 5% CO 2, after which the optical density at 600 nm (OD600) was recorded and hemolysis was assessed. A 1 mL portion of defibrinated rabbit red blood cells ( VWR International) was aliquoted into a sterile 1.5 mL microcentrifuge tube, and centrifuged at 2,000 rpm for 2 min. Following centrifugation, the top layer was aliquoted off, and red blood cells were gently washed with sterile1 mL 1X PBS. This process was repeated for a total of three times, until following centrifugation the top layer was mostly clear. Washed red blood cells were resuspended in sterile 1 mL 1X PBS solution, and a 15 µL aliquot was added to each well of the 96 -well microtiter plate. The plate was then incubated for 30 min at 37 °C. Following incubation, the plate was centrifuged for 4 min at 4 °C at 1600 rpm .
Experimental wells were then diluted 1:5 in distilled water to prevent saturation of the detector by the positive control. The absorbance at 420 nm (OD420) was then measured for each well.
Experiments were performed in triplicate on three separate days. Data are presented as the percent hemolysis relative to the .01% Triton X positive control. Results are expressed as the mean +/ - the standard deviation of three independent experiments. […]

[2] = tested on: pneumococcus ComD1 receptor; details: cited from earlier work
From the text: (§1) Table 5 EC50 or IC50 values of select Streptococcus mitis-CSP-2–based pneumococcal QS modulators against the pneumococcus ComD1 and ComD2 and the S. mitis ComD-2 receptors ^a | column: Streptococcus pneumoniae ^b / ComD1 / EC50 or IC50∗ (nM) || In our previous work, we utilized the S. mitis-CSP-2 scaffold to develop analogs capable of modulating the two pneumococcal ComD receptors at low nanomolar concentrations ([2]). We wanted to evaluate whether the optimization of the S. mitis-CSP-2 scaffold to the pneumococcus ComD receptors affected the ability of the modified analogs to interact with the S. mitis ComD-2 receptor.

S. mitis ComD-2 receptor = assay: luminescence reporter competitive inhibition assay (comX expression); format: cell-based, Streptococcus mitis; details: for IC50: same reporter strain, competition against 1 μM native S. mitis-CSP-2, 30 min at 37 °C, triplicate on three separate days
Method: As a positive control, 2 μl of S. mitis-CSP-2 and 2 μl of DMSO were added to the same well in triplicate. As a negative control, 4 μl of DMSO was added in triplicate. Then, 2 μl of 15 mg/ml D-luciferin in distilled water was added to each experimental or control well, after which 194 μl of bacteria was added, and the plate was incubated for 30 min at 37 °C. Following incubation, the A600 and luminescence of each experimental well were measured. Results were reported as percent activation, which is the ratio between the luminescence (presented as relative luminescence units, RLU/A600) of the analog and that of the positive control. […] GraphPad Prism was used to calculate the IC50 values, which are the concentration of inhibitor where the response (or binding) is reduced by half. Experiments were performed in triplicate on three separate days.
Antagonism assays were performed at 10 μM concentration of peptides against 1 µM concentration of S. mitis-CSP-2. S. mitis-CSP-2 (1 µM) was used as the positive control (100%) while DMSO as the negative control (0%). For all figures, comX expression is presented as relative luminescence units (RLU) divided by measured cultural optical density (OD). Percent (%) ComD activation was measured by normalizing the RLU/OD value obtained for each peptide to that of the native S. mitis-CSP-2. The results are averages from three replicates and representative of three independent experiments. Error bars represent the standard error of the mean of nine values.
Figure S-8. Primary antagonism screening assay data for t he S. mitis-CSP-2 alanine scan and D-amino acid […]
determine its IC50 value.
Figure S-9. Primary antagonism screening assay data for t he S. mitis-CSP-2 truncated analogs . S. mitis- […]

[3] = tested on: pneumococcus ComD2 receptor; details: cited from earlier work
From the text: as §1, with “/ ComD2” for “/ ComD1”

[4] = peptide alone with S. mitis ATCC 49456 culture

## CC[C@H](C)[C@H](NC(=O)[C@H](C)N)C(=O)N[C@@H](CCCNC(=N)N)C(=O)N[C@@H](CCC(N)=O)C(=O)N[C@H](C(=O)N[C@@H](Cc1c[nH]cn1)C(=O)N[C@@H](CC(N)=O)C(=O)N[C@H](C(=O)N[C@@H](Cc1ccccc1)C(=O)N[C@H](Cc1ccccc1)C(=O)N[C@@H](CC(N)=O)C(=O)N[C@@H](Cc1ccccc1)C(=O)N[C@@H](Cc1ccccc1)C(=O)N[C@@H](CCCCN)C(=O)N[C@@H](CCCNC(=N)N)C(=O)N[C@H](CCCNC(=N)N)C(=O)O)[C@@H](C)CC)[C@@H](C)O [S. mitis-CSP-2-E1Af10r16] (H-AIRQTHNIF[dF]NFFKR[dR]-OH)
[1]; inhibitor together with S. mitis-CSP-2, with S. mitis ATCC 49456 culture
  hemolysis relative to Triton X positive control: -3.1% ±16%
[1]; inhibitor together with S. mitis-CSP-2 in THY media
  hemolysis relative to Triton X positive control: -2.3% ±7.0%
[1]; [4]
  hemolysis relative to Triton X positive control: -6.9% ±19%

## CC[C@H](C)[C@H](NC(=O)[C@H](CC(N)=O)NC(=O)[C@H](Cc1c[nH]cn1)NC(=O)[C@@H](NC(=O)[C@H](CCC(N)=O)NC(=O)[C@H](CCCNC(=N)N)NC(=O)[C@@H](NC(=O)[C@@H](N)CCC(=O)O)[C@@H](C)CC)[C@@H](C)O)C(=O)N[C@@H](Cc1ccccc1)C(=O)N[C@@H](Cc1ccccc1)C(=O)N[C@H](CC(N)=O)C(=O)N[C@@H](Cc1ccccc1)C(=O)N[C@@H](Cc1ccccc1)C(=O)N[C@@H](CCCCN)C(=O)N[C@@H](CCCNC(=N)N)C(=O)N[C@@H](CCCNC(=N)N)C(=O)O [S. mitis-CSP-2-n11] (H-EIRQTHNIFF[dN]FFKRR-OH)
[1]; [4]
  hemolysis relative to Triton X positive control: -9.8% ±30%

## CC(C)(C)CC(C)(C)c1ccc(OCCO)cc1 [Triton X, reference compound]
[1]; 0.01% Triton X in THY media
  hemolysis, positive control: 100% ± 15%

## AIRQTHNIFFFLFKRR [S. mitis-CSP-2-E1AN11FF12L]
[2]
  inhibitory activity against S. pneumoniae ComD1 receptor: no inhibitory activity
S. mitis ComD-2 receptor
  IC50: > 1 µM
[3]
  inhibitory activity against S. pneumoniae ComD2 receptor: no inhibitory activity

## EIRQTHNIFFNFFKRR [S. mitis-CSP-2, reference compound]
[1]; [4]
  hemolysis relative to Triton X positive control: -9.6% ±24%

## IRQTHNIFFNFFKRR [S. mitis-CSP-2-des-E1]
S. mitis ComD-2 receptor; 10 μM peptide against 1 µM S. mitis-CSP-2 (100%), DMSO 0%
  % ComD activation, primary antagonism screening: less than 50%
S. mitis ComD-2 receptor
  IC50: > 1 µM
